Here are results for 7 molecules from patent US20030134292A1, “Thermostable DNA polymerases and methods of making same” (priority 2001, published 2003).

Format in all cases: biochemical
Assay [1] has as its target T1, Taq Δ271 F667Y (polymerase A) (Thermus aquaticus, UniProt P19821, F272M/F667Y).
T1 construct: made in house; host or cells: E. coli
Nature of the assay: DNA polymerase activity assay with detergent or additive, Taq Δ271 F667Y purified without detergent. Here is the method:
(§1) DNA polymerase activity was measured by running reactions of 50 μL containing 25 mM TAPS (tris-hydroxymethyl-methylaminopropane sulfonic acid) buffer, pH 9.3 (measured at 25° C.), 50 mM KCl, 2 mM MgCl2, 1 mM 2-mercaptoethanol, 0.2 mM each of dGTP, dCTP, dTTP, 0.2 mM [α-^33P]-dATP (0.05-0.1 Ci/mmol) and 0.4 mg/mL activated salmon sperm DNA. The reaction mixture (45 μL) was pre-heated to 74° C. and diluted polymerase (5 μL) added with thorough mixing. After 10 minutes of further incubation at 74° C., the reaction was stopped by the addition of 10 μL of 60 mM EDTA and the entire mixture placed at 0° C. Acid-precipitable radioactivity was determined on an aliquot ([…]) by diluting with 1 ml of 2 mM EDTA containing 0.05 mg/ml salmon sperm DNA and adding 1 mL of 20% (w/v) trichloroacetic acid, 2% (w/v) sodium pyrophosphate (Na4P2O7 10H2O) and incubating on ice for at least 15 minutes. Precipitated DNA was collected by filtering through 2.4 cm GFC filter disks (Schleichter and Schuell) and washed 7 times with 5ml of with 1 N HCl, 0.1 M sodium pyrophosphate. The filter was placed in 3 ml of aqueous scintillation counting fluid and ^33P-specific radioactivity determined by scintillation counting.
(§2) For the assays presented in Tables 5 and 6, the polymerase was diluted 10-5000 fold in a buffer containing 25 mM Tris-HCl pH 8.0, 50 mM KCl, 1 mM 2-mercaptoethanol, and the indicated concentration of detergent or other additive. Where possible, only reactions which incorporated 20- 100 pmol of dAMP in 10 minutes were used for calculation of activity.

The target in assay [2] is T2, Tth Δ273 F668Y (polymerase C) (Thermus thermophilus, UniProt P52028, F274M/F669Y).
T2 construct: made in house; host or cells: E. coli
T2 sequence (P52028 274-834 F274M/F669Y): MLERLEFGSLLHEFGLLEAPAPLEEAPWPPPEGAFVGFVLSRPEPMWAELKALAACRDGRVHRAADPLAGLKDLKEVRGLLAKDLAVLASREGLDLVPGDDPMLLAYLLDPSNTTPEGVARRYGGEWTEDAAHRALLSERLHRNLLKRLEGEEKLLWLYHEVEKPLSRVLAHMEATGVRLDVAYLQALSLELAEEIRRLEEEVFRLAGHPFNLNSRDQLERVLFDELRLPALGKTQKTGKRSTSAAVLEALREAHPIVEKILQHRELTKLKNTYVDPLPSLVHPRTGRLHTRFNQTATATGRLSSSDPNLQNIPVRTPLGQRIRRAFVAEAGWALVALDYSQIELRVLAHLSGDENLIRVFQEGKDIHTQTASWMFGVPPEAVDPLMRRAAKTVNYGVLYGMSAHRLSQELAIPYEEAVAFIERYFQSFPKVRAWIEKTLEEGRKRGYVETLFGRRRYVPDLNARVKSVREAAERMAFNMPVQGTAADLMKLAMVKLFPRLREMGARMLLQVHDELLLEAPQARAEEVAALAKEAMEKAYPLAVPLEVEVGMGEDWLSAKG
Description: DNA polymerase activity assay with detergent or additive, Tth Δ273 F668Y purified without detergent. As to the method: as §1, §2

Assay [3] addresses T3, Taq Δ271 F667Y E681W (polymerase B) (Thermus aquaticus, UniProt P19821, E681W/F272M/F667Y).
T3 construct: made in house; host or cells: E. coli
Nature of the assay: DNA polymerase activity assay with detergent or additive, Taq Δ271 F667Y E681W purified without detergent. Here is the method: as §1, §2

[4] abbreviates: additive final concentration 0.001% (w/v) in assay reaction mixture.
The mark [5] stands for this setting: additive final concentration 0.01% (w/v).
Where [6] appears, read: additive final concentration 0.05% (w/v).
[7] abbreviates: additive final concentration 0.1% (w/v).
The mark [8] stands for this setting: additive final concentration 0.2% (w/v).

T1 sequence (P19821 272-832 F272M/F667Y): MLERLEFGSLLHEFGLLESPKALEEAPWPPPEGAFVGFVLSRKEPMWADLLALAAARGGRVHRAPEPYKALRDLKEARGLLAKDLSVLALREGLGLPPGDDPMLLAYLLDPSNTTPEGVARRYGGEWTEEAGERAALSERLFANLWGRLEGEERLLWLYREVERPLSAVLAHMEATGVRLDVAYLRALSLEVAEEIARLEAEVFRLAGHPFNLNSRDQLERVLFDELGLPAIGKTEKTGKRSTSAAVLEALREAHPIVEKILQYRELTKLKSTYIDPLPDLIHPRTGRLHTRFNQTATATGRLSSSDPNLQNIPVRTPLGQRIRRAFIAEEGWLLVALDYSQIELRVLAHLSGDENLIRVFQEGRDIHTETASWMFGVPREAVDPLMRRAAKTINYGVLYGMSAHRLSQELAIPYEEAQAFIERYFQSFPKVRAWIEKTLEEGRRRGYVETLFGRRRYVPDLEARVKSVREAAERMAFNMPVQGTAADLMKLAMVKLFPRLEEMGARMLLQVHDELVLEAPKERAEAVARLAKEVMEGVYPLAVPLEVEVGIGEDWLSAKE
T3 sequence (P19821 272-832 F272M/F667Y/E681W): as the sequence (P19821 272-832 F272M/F667Y) above, with E410W counted along it

As to `CCCCCCCCO[C@@H]1O[C@H](CO)[C@H](O)[C@H](O)[C@H]1O` [N-octyl β-D-galactopyranoside], the “Taq Δ271 F667Y activity relative to 0.5% each NP-40 and Tween 20” value is “− − − (Activity < 20%)” in assay [1] (setting [4]), “− − − (Activity < 20%)” in assay [1] (setting [5]) and “− − (Activity 20-50%)” in assay [1] (setting [6]). For the same molecule, the “Tth Δ273 F668Y activity relative to 0.5% each NP-40 and Tween 20” value in assay [2] (setting [4]) was “− − (Activity 20-50%)”; in assay [2] (setting [5]), “− − (Activity 20-50%)”; in assay [2] (setting [6]), “+ + + (Activity > 80% (relative to activity using 0.5% each NP-40 and Tween 20))”. Also, the “Taq Δ271 F667Y E681W activity relative to 0.5% each NP-40 and Tween 20” value in assay [3] (setting [5]) is recorded as “− − − (Activity < 20%)”; in assay [3] (setting [7]) it was “− (Activity 50-60%)”; in assay [3] (additive final concentration 0.25% (w/v)), “+ (Activity 60-70%)”; in assay [3] (additive final concentration 0.5% (w/v)) it was “− − − (Activity < 20%)”.
Consider `CCCCCCCCO[C@@H]1O[C@H](CO)[C@@H](O)[C@H](O)[C@H]1O` [Octyl Glucopyranoside, n-octyl-β-D-glucopyranoside], for which the “Taq Δ271 F667Y activity relative to 0.5% each NP-40 and Tween 20” value in assay [1] (setting [5]) is listed as “− − − (Activity < 20%)”; in assay [1] (setting [7]), “− − (Activity 20-50%)”. The “Tth Δ273 F668Y activity relative to 0.5% each NP-40 and Tween 20” value in assay [2] (setting [5]) is “− − − (Activity < 20%)”; in assay [2] (setting [7]) it was “+ + + (Activity > 80% (relative to activity using 0.5% each NP-40 and Tween 20))”. Also, in assay [2] (detergent 0.1% (w/v)), the “Polymerase C Activity (%)” value came to 79.7%. In addition, the “Taq Δ271 F667Y E681W activity relative to 0.5% each NP-40 and Tween 20” value was “− − − (Activity < 20%)” in assay [3] (setting [5]); “+ + + (Activity > 80% (relative to activity using 0.5% each NP-40 and Tween 20))” in assay [3] (setting [7]). Further, in assay [3] (detergent 0.1% (w/v)), the “Polymerase B Activity (%)” value was 1%.
For the molecule `C[C@H](CCC(=O)[O-])[C@H]1CC[C@H]2[C@@H]3[C@H](O)C[C@@H]4C[C@H](O)CC[C@]4(C)[C@H]3C[C@H](O)[C@]12C.[Na+]` [Sodium Cholate], the “Taq Δ271 F667Y activity relative to 0.5% each NP-40 and Tween 20” value in assay [1] (setting [5]), in assay [1] (setting [6]) and in assay [1] (setting [7]) was “− − − (Activity < 20%)” in each case. Further, the “Tth Δ273 F668Y activity relative to 0.5% each NP-40 and Tween 20” value in assay [2] (setting [5]), in assay [2] (setting [6]) and in assay [2] (setting [7]) was “− − − (Activity < 20%)” in each case. The “Taq Δ271 F667Y E681W activity relative to 0.5% each NP-40 and Tween 20” value in assay [3] (setting [5]), in assay [3] (setting [6]) and in assay [3] (setting [7]) was “− − − (Activity < 20%)” each time.
For the molecule `CCCCCCCC[N+](C)(C)CCCS(=O)(=O)[O-]` [Zwittergent 3-08], the “Taq Δ271 F667Y activity relative to 0.5% each NP-40 and Tween 20” value is on record as “− − − (Activity < 20%)” in assay [1] (setting [6]), “− − (Activity 20-50%)” in assay [1] (setting [7]) and “− − (Activity 20-50%)” in assay [1] (setting [8]). Besides, the entries for the “Tth Δ273 F668Y activity relative to 0.5% each NP-40 and Tween 20” value in assay [2] (setting [6]), in assay [2] (setting [7]) and in assay [2] (setting [8]) were “− − (Activity 20-50%)”, “− (Activity 50-60%)” and “+ (Activity 60-70%)”, respectively. The “Taq Δ271 F667Y E681W activity relative to 0.5% each NP-40 and Tween 20” value in assay [3] (setting [6]) is given as “− − − (Activity < 20%)”; in assay [3] (setting [7]) it was “− − (Activity 20-50%)”; in assay [3] (setting [8]), “− − (Activity 20-50%)”.
`CCCCCCCCCC[N+](C)(C)CCCS(=O)(=O)[O-]` [Zwittergent 3-10]: the “Taq Δ271 F667Y activity relative to 0.5% each NP-40 and Tween 20” value in assay [1] (setting [6]) is recorded as “− − (Activity 20-50%)”; in assay [1] (setting [7]), “− − (Activity 20-50%)”; in assay [1] (setting [8]) it was “− (Activity 50-60%)”. The “Tth Δ273 F668Y activity relative to 0.5% each NP-40 and Tween 20” value in assay [2] (setting [6]) is recorded as “− − (Activity 20-50%)”; in assay [2] (setting [7]) it was “+ (Activity 60-70%)”; in assay [2] (setting [8]), “+ (Activity 60-70%)”. The “Taq Δ271 F667Y E681W activity relative to 0.5% each NP-40 and Tween 20” value in assay [3] (setting [6]) was “− − − (Activity < 20%)”; in assay [3] (setting [7]) it was “− − (Activity 20-50%)”; in assay [3] (setting [8]), “− − (Activity 20-50%)”.
For the molecule `CCCCCCCCCCCCO[C@@H]1O[C@H](CO)[C@@H](O[C@H]2O[C@H](CO)[C@@H](O)[C@H](O)[C@H]2O)[C@H](O)[C@H]1O` [n-Dodecyl-β-D-Maltoside, n-dodecyl-β-D-maltoside], the “Taq Δ271 F667Y activity relative to 0.5% each NP-40 and Tween 20” value in assay [1] (setting [5]) is given as “+ ++”. In assay [1] (detergent 0.01% (w/v)), the “Polymerase A Activity (%)” value worked out at 98.8%. For the same molecule, the “Tth Δ273 F668Y activity relative to 0.5% each NP-40 and Tween 20” value in assay [2] (setting [5]) was “+ + + (Activity > 80% (relative to activity using 0.5% each NP-40 and Tween 20))”. In addition, the “Polymerase C Activity (%)” value in assay [2] (detergent 0.01% (w/v)) came to 80.8%. In addition, the “Taq Δ271 F667Y E681W activity relative to 0.5% each NP-40 and Tween 20” value is “+ (Activity 60-70%)” in assay [3] (setting [4]); “+ + + (Activity > 80% (relative to activity using 0.5% each NP-40 and Tween 20))” in assay [3] (setting [5]); “+ (Activity 60-70%)” in assay [3] (additive final concentration 0.02% (w/v)); “+ (Activity 60-70%)” in assay [3] (setting [7]). Further, the “Polymerase B Activity (%)” value in assay [3] (detergent 0.01% (w/v)) worked out at 92.3%.
Take Sodium Deoxycholate: the “Taq Δ271 F667Y activity relative to 0.5% each NP-40 and Tween 20” value in assay [1] (setting [5]), in assay [1] (setting [6]) and in assay [1] (setting [7]) was “− − − (Activity < 20%)” throughout. Moreover, the “Tth Δ273 F668Y activity relative to 0.5% each NP-40 and Tween 20” value in assay [2] (setting [5]), in assay [2] (setting [6]) and in assay [2] (setting [7]) was “− − − (Activity < 20%)” in each case. Further, the “Taq Δ271 F667Y E681W activity relative to 0.5% each NP-40 and Tween 20” value in assay [3] (setting [5]), in assay [3] (setting [6]) and in assay [3] (setting [7]) was “− − − (Activity < 20%)” each time.
